These results are taken from patent publication US20230017045A1, “PYRIDINE AND PYRIMIDINE CARBOXYLATE HERBICIDES AND METHODS OF USE THEREOF” (Dow AgroSciences LLC, priority 2017, published 2023).

The subject of this test is test plant species. As to the kind of experiment: Post-emergent herbicidal activity test (greenhouse, foliar spray, visual growth reduction). Particulars: post-emergence, 336 h, 140 g ai/ha. It counts as in vivo. Summed up:
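Scoring used a 0 to 100 percent visual scale of growth reduction against solvent-treated controls, read 14 d after spraying. Applications went onto plants at first or second true leaf stage, 187 L/ha, with crop oil concentrate and X-77 surfactant in the carrier. Post-treatment watering was by subirrigation to avoid wash-off.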

The mark [1] stands for this setting: ECHCG: barnyardgrass (Echinochloa crus-galli), 14 days after application, read-out: Visual Growth Reduction (%) 14 Days After Application, ECHCG.
Setting [2] is: IPOHE: ivy-leaf morning glory (Ipomoea hederacea), 14 days after application, read-out: Visual Growth Reduction (%) 14 Days After Application, IPOHE.
Setting [3] is: KCHSC: kochia (Bassia scoparia), 14 days after application, read-out: Visual Growth Reduction (%) 14 Days After Application, KCHSC.
[4] abbreviates: ORYSA: rice (Oryza sativa), 14 days after application, read-out: Visual Growth Reduction (%) 14 Days After Application, ORYSA.
The mark [5] stands for this setting: SETFA: giant foxtail (Setaria faberi), 14 days after application, read-out: Visual Growth Reduction (%) 14 Days After Application, SETFA.
[6] abbreviates: SORVU: grain sorghum (Sorghum vulgare), 14 days after application, read-out: Visual Growth Reduction (%) 14 Days After Application, SORVU.
Setting [7] is: STEME: common chickweed (Stellaria media), 14 days after application, read-out: Visual Growth Reduction (%) 14 Days After Application, STEME.
[8] abbreviates: TRZAS: wheat, spring (Triticum aestivum), 14 days after application, read-out: Visual Growth Reduction (%) 14 Days After Application, TRZAS.
Where [9] appears, read: blackgrass (Alopecurus myosuroides), 14 Days After Application, read-out: Visual Growth Reduction (%) ALOMY.
Where [10] appears, read: canada thistle (Cirsium arvense), 14 Days After Application, read-out: Visual Growth Reduction (%) CIRAR.
The mark [11] stands for this setting: crabgrass (Digitaria sanguinalis), 14 Days After Application, read-out: Visual Growth Reduction (%) DIGSA.
Setting [12] is: lambsquarters (Chenopodium album), 14 Days After Application, read-out: Visual Growth Reduction (%) CHEAL.
Where [13] appears, read: redroot pigweed (Amaranthus retroflexus), 14 Days After Application, read-out: Visual Growth Reduction (%) AMARE.
The mark [14] stands for this setting: wild oat (Avena fatua), 14 Days After Application, read-out: Visual Growth Reduction (%) AVEFA.
The mark [15] stands for this setting: yellow nutsedge (Cyperus esculentus), 14 Days After Application, read-out: Visual Growth Reduction (%) CYPES.

Read-outs that look alike come from different tables or passages of the source.

With `CCCCOC(=O)c1nc(-c2ccc(Cl)c(OC)c2F)ccc1Cl` [F280, Butyl 3-chloro-6-(4-chloro-2-fluoro-3-methoxyphenyl) picolinate], the pest or weed control at 140 g/ha by setting is: under setting [1], 0 to 29%; under setting [2], 30 to 44%; under setting [3], 60 to 74%; under setting [4], 0 to 29%; under setting [5], 0 to 29%; under setting [6], 0 to 29%. The pest or weed control at 140 g/ha is 0 to 29% under setting [7]; 0 to 29% under setting [8]; 0 to 29% under setting [9]; 30 to 44% under setting [10]; 0 to 29% under setting [11]; 85 to 94% under setting [12]. In addition, the pest or weed control at 140 g/ha under setting [13] is 30 to 44%, the pest or weed control at 140 g/ha under setting [14] was 0 to 29% and the pest or weed control at 140 g/ha under setting [15] lay within 60 to 74%.
For `COC(=O)c1nc(-c2ccc(Cl)c(C(F)F)c2Cl)ccc1Cl` [F281, Methyl 3-chloro-6-(2,4-dichloro-3-(difluoromethyl)phenyl)picolinate], the pest or weed control at 140 g/ha was in the range of 0 to 29% under setting [1]; 85 to 94% under setting [2]; 0 to 29% under setting [3]; 0 to 29% under setting [4]; 30 to 44% under setting [5]; 85 to 94% under setting [6]. Besides, the pest or weed control at 140 g/ha was 0 to 29% under setting [7]; 0 to 29% under setting [8]; 0 to 29% under setting [9]; 0 to 29% under setting [10]; 0 to 29% under setting [11]; 85 to 94% under setting [12]. The pest or weed control at 140 g/ha was in the range of 75 to 84% under setting [13], 0 to 29% under setting [14] and 0 to 29% under setting [15].
On to `COC(=O)c1nc(-c2ccc(Cl)c(C(C)F)c2Cl)ccc1Cl` (stereo not drawn) [F282, Methyl 3-chloro-6-(2,4-dichloro-3-(1-fluoroethyl)phenyl) picolinate], for which the pest or weed control at 140 g/ha was in the range of 0 to 29% under setting [1]; 45 to 59% under setting [2]; 0 to 29% under setting [3]; 0 to 29% under setting [4]; 0 to 29% under setting [5]; 0 to 29% under setting [6]. Besides, the pest or weed control at 140 g/ha under setting [7] lay within 0 to 29%; the pest or weed control at 140 g/ha under setting [8] lay in the range of 0 to 29%; the pest or weed control at 140 g/ha under setting [9] was 0 to 29%; the pest or weed control at 140 g/ha under setting [10] is 60 to 74%; the pest or weed control at 140 g/ha under setting [11] lay in the range of 0 to 29%; the pest or weed control at 140 g/ha under setting [12] fell in the range of 85 to 94%. Besides, the pest or weed control at 140 g/ha reads like this: under setting [13], 45 to 59%; under setting [14], 0 to 29%; under setting [15], 0 to 29%.
Turning to `CCCCOC(=O)c1nc(-c2ccc(Br)c(OC)c2F)ccc1Cl` [F283, Butyl 6-(4-bromo-2-fluoro-3-methoxyphenyl)-3-chloropicolinate], the pest or weed control at 140 g/ha reads like this: under setting [1], 0 to 29%; under setting [2], 0 to 29%; under setting [3], 75 to 84%; under setting [4], 0 to 29%; under setting [5], 0 to 29%; under setting [6], 0 to 29%. Further, the pest or weed control at 140 g/ha runs as follows: under setting [7], 0 to 29%; under setting [8], 0 to 29%; under setting [9], 0 to 29%; under setting [10], 85 to 94%; under setting [11], 0 to 29%; under setting [12], 85 to 94%. Moreover, the pest or weed control at 140 g/ha runs as follows: under setting [13], 30 to 44%; under setting [14], 0 to 29%; under setting [15], 30 to 44%.
For `COC(=O)c1nc(-c2ccc(Cl)nc2Cl)ccc1Cl` [F284, Methyl 2′,5,6′-trichloro-[2,3′-bipyridine]-6-carboxylate], the pest or weed control at 140 g/ha lay within 0 to 29% under setting [1]; 60 to 74% under setting [2]; 0 to 29% under setting [3]; 0 to 29% under setting [4]; 0 to 29% under setting [5]; 85 to 94% under setting [6]. For the same compound, the pest or weed control at 140 g/ha runs as follows: under setting [7], 0 to 29%; under setting [8], 0 to 29%; under setting [9], 0 to 29%; under setting [10], 30 to 44%; under setting [11], 0 to 29%; under setting [12], 0 to 29%. Also, the pest or weed control at 140 g/ha runs as follows: under setting [13], 0 to 29%; under setting [14], 0 to 29%; under setting [15], 0 to 29%.
As for `CCC(F)c1c(Cl)ccc(-c2ccc(Cl)c(C(=O)OC)n2)c1F` (stereo not drawn) [F285, Methyl 3-chloro-6-(4-chloro-2-fluoro-3-(1-fluoropropyl)phenyl) picolinate], the pest or weed control at 140 g/ha under setting [1] fell in the range of 0 to 29%; the pest or weed control at 140 g/ha under setting [2] was in the range of 0 to 29%; the pest or weed control at 140 g/ha under setting [3] was in the range of 0 to 29%; the pest or weed control at 140 g/ha under setting [4] was 0 to 29%; the pest or weed control at 140 g/ha under setting [5] was 0 to 29%; the pest or weed control at 140 g/ha under setting [6] fell in the range of 0 to 29%. Further, the pest or weed control at 140 g/ha is 0 to 29% under setting [7]; 0 to 29% under setting [8]; 0 to 29% under setting [9]; 30 to 44% under setting [10]; 0 to 29% under setting [11]; 0 to 29% under setting [12]. Moreover, the pest or weed control at 140 g/ha was in the range of 0 to 29% under setting [13], 0 to 29% under setting [14] and 0 to 29% under setting [15].
As to `CCCOC(=O)c1nc(-c2ccc(Cl)c(OC)c2F)ccc1Cl` [F286, Propyl 3-chloro-6-(4-chloro-2-fluoro-3-methoxyphenyl) picolinate], the pest or weed control at 140 g/ha by setting is: under setting [1], 0 to 29%; under setting [2], 60 to 74%; under setting [3], 60 to 74%; under setting [4], 0 to 29%; under setting [5], 0 to 29%; under setting [6], 0 to 29%. Besides, the pest or weed control at 140 g/ha under setting [7] lay within 0 to 29%; the pest or weed control at 140 g/ha under setting [8] fell in the range of 0 to 29%; the pest or weed control at 140 g/ha under setting [9] is 0 to 29%; the pest or weed control at 140 g/ha under setting [10] was 60 to 74%; the pest or weed control at 140 g/ha under setting [11] is 0 to 29%; the pest or weed control at 140 g/ha under setting [12] was in the range of 75 to 84%. For the same compound, the pest or weed control at 140 g/ha by setting is: under setting [13], 0 to 29%; under setting [14], 0 to 29%; under setting [15], 0 to 29%.
As to `COC(=O)c1nc(-c2ccc(C3CC3)c(F)c2)ccc1Cl` [F287, Methyl 3-chloro-6-(4-cyclopropyl-3-fluorophenyl) picolinate], the pest or weed control at 140 g/ha is 0 to 29% under setting [1]; 60 to 74% under setting [2]; 0 to 29% under setting [3]; 0 to 29% under setting [4]; 0 to 29% under setting [5]; 0 to 29% under setting [6]. Further, the pest or weed control at 140 g/ha runs as follows: under setting [7], 0 to 29%; under setting [8], 0 to 29%; under setting [9], 0 to 29%; under setting [10], 0 to 29%; under setting [11], 0 to 29%; under setting [12], 0 to 29%. Moreover, the pest or weed control at 140 g/ha was 0 to 29% under setting [13], 0 to 29% under setting [14] and 0 to 29% under setting [15].
Take `COC(=O)c1nc(-c2ccc(OS(C)(=O)=O)cc2Cl)ccc1Cl` [F288, methyl 3-chloro-6-(2-chloro-4-((methylsulfonyl)oxy)phenyl)picolinate]: the pest or weed control at 140 g/ha lay within 60 to 74% under setting [1]; 95 to 100% under setting [2]; 75 to 84% under setting [3]; 0 to 29% under setting [4]; 60 to 74% under setting [5]; 85 to 94% under setting [6]. For the same compound, the pest or weed control at 140 g/ha reads like this: under setting [7], 0 to 29%; under setting [8], 30 to 44%; under setting [9], 0 to 29%; under setting [10], 95 to 100%; under setting [11], 75 to 84%; under setting [12], 85 to 94%. The pest or weed control at 140 g/ha lay within 85 to 94% under setting [13], 0 to 29% under setting [14] and 0 to 29% under setting [15].
